Test results from US20160175318A1, “COMPOSITIONS COMPRISING ANTIBACTERIAL AGENT AND TAZOBACTAM” (WOCKHARDT LIMITED, priority 2013, published 2016).
Where two headings read alike, the source gives them in different places. Each block holds one compound with its values, some of them ahead of it.

Tests used:
Format in all cases: cell-based
E. coli S-112 = experiment: Quantitative drug diffusion assay (disc, zone of inhibition, CLSI); parameters: key to Interpretation of zone as per CLSI recommendations: R: Resistant; I: Intermediate; S: Sensitive (Interpretation as per CLSI recommendations, 2010)
From the text: (§1) Activity of cefepime in combination with tazobactam and various penicillins in combination with respective ESBL inhibitors was also investigated against highly resistant ESBL strains in quantitative drug diffusion assay performed as per CLSI recommendations (Clinical and Laboratory Standards Institute (CLSI), performance Standards for Antimicrobial Susceptibility Testing, 20th Informational Supplement, M 100-S20, Volume 30, No. 1, 2010).
(§2) In a typical study, overnight grown bacterial cultures after appropriate dilution were seed inoculated in the molten, cooled agar media and plates poured. Antibiotics containing 6 mm diameter discs were place on the top of the agar surface. Zone of inhibition based observation was performed after 16-18 h of incubation at 35±2° C. in ambient air. The overall procedure was performed as per CLSI recommendations (Table 5 and 6). These assays are routinely used in determining possibility of treating a particular infection using antibiotic and/or their combinations. For example, in case of treating an infection caused by E. coli (M138) using Augmentin® [commercially available combination: Amoxicillin (500 mg)+Clavulanic acid (125 mg)], the zone inhibition values need to be in the sensitive (S) range.

E. coli M-138 = experiment: as above; parameters: key to Interpretation of zone as per CLSI recommendations: R: Resistant; I: Intermediate; S: Sensitive (Interpretation as per CLSI recommendations, 2010)
From the text: as §1, §2

E. coli B-123 = experiment: as above; parameters: key to Interpretation of zone as per CLSI recommendations: R: Resistant; I: Intermediate; S: Sensitive (Interpretation as per CLSI recommendations, 2010)
From the text: as §1, §2

E. coli M50 [1] = experiment: as above; parameters: key to Interpretation of zone as per CLSI recommendations: R: Resistant; I: Intermediate; S: Sensitive (Interpretation as per CLSI recommendations, 2010)
From the text: as §1, §2

E. coli B-89 [2] = experiment: as above; parameters: key to Interpretation of zone as per CLSI recommendations: R: Resistant; I: Intermediate; S: Sensitive (Interpretation as per CLSI recommendations, 2010)
From the text: as §1, §2

E. coli 7MP [3] = experiment: as above; parameters: key to Interpretation of zone as per CLSI recommendations: R: Resistant; I: Intermediate; S: Sensitive (Interpretation as per CLSI recommendations, 2010)
From the text: as §1, §2

E. cloacae M-20 = experiment: MIC by agar dilution (CLSI) against highly resistant ESBL strain; conditions: E. cloacae M-20
Experimental: (§3) The results on activity of cefepime and other cephalosporin antibacterial agents in combination with tazobactam against highly resistant ESBL strains are given Table 1. In a typical study, overnight grown bacterial cultures were diluted appropriately and inoculated on the agar media containing doubling dilutions of the antibiotic. Observation for growth or no growth was performed after 16-20 h of incubation at 35±2° C. in ambient air. The overall procedure was performed as per Clinical and Laboratory Standards Institute (CLSI) recommendations. This experimental was followed for Examples 2-4 and 6 below (Table 2-4 and 7).

E. coli M50 [4] = experiment: as above
Experimental: as §3

E. coli B-89 [5] = experiment: as above; conditions: E. coli B-89
Experimental: as §3

K. pneumoniae M150 = experiment: as above; conditions: Klebsiella pneumoniae, M150, K. pneumoniae M150, read-out: MIC
Experimental: as §3

E. coli 7MP [6] = experiment: as above; conditions: E. coli 7MP
Experimental: as §3

[7] = ESBL inhibitor 0 mcg (antibiotic alone)
[8] = Enterobacter cloacae, M20, 20 h, Tazobactam 0 mcg (antibiotic alone), read-out: MIC
[9] = Escherichia coli, 20 h, Tazobactam 0 mcg (antibiotic alone), read-out: MIC
[10] = Escherichia coli, B89, 20 h, Tazobactam 0 mcg (antibiotic alone), read-out: MIC
[11] = Tazobactam 0 mcg (antibiotic alone)
[12] = Escherichia coli, 7MP, 20 h, Tazobactam 0 mcg (antibiotic alone), read-out: MIC
[13] = Table 5, with Tazobactam 10 mcg
[14] = Table 6, with Tazobactam 10 mcg

- MIC (E. cloacae M-20; with Tazobactam 4 mcg): >64 µg/mL
- MIC (E. cloacae M-20; with Tazobactam 8 mcg): >64 µg/mL
- MIC (E. cloacae M-20; [8]): > 128 µg/mL
- MIC (E. coli M50 [4]; [9]): > 128 µg/mL
- MIC (E. coli M50 [4]; with Tazobactam 4 mcg): >64 µg/mL
- MIC (E. coli M50 [4]; with Tazobactam 8 mcg): >64 µg/mL
- MIC (E. coli B-89 [5]; with Tazobactam 4 mcg): >64 µg/mL
- MIC (E. coli B-89 [5]; with Tazobactam 8 mcg): >64 µg/mL
- MIC (E. coli B-89 [5]; [10]): > 128 µg/mL
- MIC (K. pneumoniae M150; [11]): > 128 µg/mL
- MIC (K. pneumoniae M150; with Tazobactam 4 mcg): > 64 µg/mL
- MIC (K. pneumoniae M150; with Tazobactam 8 mcg): > 64 µg/mL
- MIC (E. coli 7MP [6]; with Tazobactam 4 mcg): >64 µg/mL
- MIC (E. coli 7MP [6]; with Tazobactam 8 mcg): >64 µg/mL
- MIC (E. coli 7MP [6]; [12]): > 128 µg/mL
SMILES: CC1(C)S[C@@H]2[C@H](NC(=O)[C@H](N)c3ccccc3)C(=O)N2[C@H]1C(=O)O [Ampicillin]
- Zone of Inhibition (E. coli S-112; [7]): Nil
- Interpretation of zone as per CLSI recommendations (E. coli S-112; Table 5, ESBL inhibitor 0 mcg): (R)
- Interpretation of zone as per CLSI recommendations (E. coli S-112; Table 5, with Sulbactam 10 mcg): (R)
- Interpretation of zone as per CLSI recommendations (E. coli S-112; Table 6, ESBL inhibitor 0 mcg): (R)
- Interpretation of zone as per CLSI recommendations (E. coli S-112; Table 6, with Sulbactam 10 mcg): (R)
- Zone of Inhibition (E. coli S-112; with Sulbactam 10 mcg): Nil
- Zone of Inhibition (E. coli M-138; [7]): Nil
- Interpretation of zone as per CLSI recommendations (E. coli M-138; Table 5, ESBL inhibitor 0 mcg): (R)
- Interpretation of zone as per CLSI recommendations (E. coli M-138; Table 5, with Sulbactam 10 mcg): (R)
- Interpretation of zone as per CLSI recommendations (E. coli M-138; Table 6, ESBL inhibitor 0 mcg): (R)
- Interpretation of zone as per CLSI recommendations (E. coli M-138; Table 6, with Sulbactam 10 mcg): (R)
- Zone of Inhibition (E. coli M-138; with Sulbactam 10 mcg): Nil
- Zone of Inhibition (E. coli B-123; [7]): Nil
- Interpretation of zone as per CLSI recommendations (E. coli B-123; Table 5, ESBL inhibitor 0 mcg): (R)
- Interpretation of zone as per CLSI recommendations (E. coli B-123; Table 5, with Sulbactam 10 mcg): (R)
- Interpretation of zone as per CLSI recommendations (E. coli B-123; Table 6, ESBL inhibitor 0 mcg): (R)
- Interpretation of zone as per CLSI recommendations (E. coli B-123; Table 6, with Sulbactam 10 mcg): (R)
- Zone of Inhibition (E. coli B-123; with Sulbactam 10 mcg): Nil
- Zone of Inhibition (E. coli M50 [1]; [7]): Nil
- Interpretation of zone as per CLSI recommendations (E. coli M50 [1]; Table 5, ESBL inhibitor 0 mcg): (R)
- Interpretation of zone as per CLSI recommendations (E. coli M50 [1]; Table 5, with Sulbactam 10 mcg): (R)
- Interpretation of zone as per CLSI recommendations (E. coli M50 [1]; Table 6, ESBL inhibitor 0 mcg): (R)
- Interpretation of zone as per CLSI recommendations (E. coli M50 [1]; Table 6, with Sulbactam 10 mcg): (R)
- Zone of Inhibition (E. coli M50 [1]; with Sulbactam 10 mcg): Nil
- Zone of Inhibition (E. coli B-89 [2]; [7]): Nil
- Interpretation of zone as per CLSI recommendations (E. coli B-89 [2]; Table 5, ESBL inhibitor 0 mcg): (R)
- Interpretation of zone as per CLSI recommendations (E. coli B-89 [2]; Table 5, with Sulbactam 10 mcg): (R)
- Interpretation of zone as per CLSI recommendations (E. coli B-89 [2]; Table 6, ESBL inhibitor 0 mcg): (R)
- Interpretation of zone as per CLSI recommendations (E. coli B-89 [2]; Table 6, with Sulbactam 10 mcg): (R)
- Zone of Inhibition (E. coli B-89 [2]; with Sulbactam 10 mcg): Nil
- Zone of Inhibition (E. coli 7MP [3]; [7]): Nil
- Interpretation of zone as per CLSI recommendations (E. coli 7MP [3]; Table 5, ESBL inhibitor 0 mcg): (R)
- Interpretation of zone as per CLSI recommendations (E. coli 7MP [3]; Table 5, with Sulbactam 10 mcg): (R)
- Interpretation of zone as per CLSI recommendations (E. coli 7MP [3]; Table 6, ESBL inhibitor 0 mcg): (R)
- Interpretation of zone as per CLSI recommendations (E. coli 7MP [3]; Table 6, with Sulbactam 10 mcg): (R)
- Zone of Inhibition (E. coli 7MP [3]; with Sulbactam 10 mcg): Nil

- MIC (E. cloacae M-20; with Tazobactam 4 mcg): >64 µg/mL
- MIC (E. cloacae M-20; with Tazobactam 8 mcg): >64 µg/mL
- MIC (E. cloacae M-20; [8]): > 128 µg/mL
- MIC (E. coli M50 [4]; [9]): > 128 µg/mL
- MIC (E. coli M50 [4]; with Tazobactam 4 mcg): >64 µg/mL
- MIC (E. coli M50 [4]; with Tazobactam 8 mcg): >64 µg/mL
- MIC (E. coli B-89 [5]; with Tazobactam 4 mcg): >64 µg/mL
- MIC (E. coli B-89 [5]; with Tazobactam 8 mcg): >64 µg/mL
- MIC (E. coli B-89 [5]; [10]): > 128 µg/mL
- MIC (K. pneumoniae M150; [11]): > 128 µg/mL
- MIC (K. pneumoniae M150; with Tazobactam 4 mcg): > 64 µg/mL
- MIC (K. pneumoniae M150; with Tazobactam 8 mcg): > 64 µg/mL
- MIC (E. coli 7MP [6]; with Tazobactam 4 mcg): >64 µg/mL
- MIC (E. coli 7MP [6]; with Tazobactam 8 mcg): >64 µg/mL
- MIC (E. coli 7MP [6]; [12]): > 128 µg/mL
SMILES: CCN1CCN(C(=O)N[C@@H](C(=O)N[C@@H]2C(=O)N3[C@@H]2SC(C)(C)[C@@H]3C(=O)O)c2ccccc2)C(=O)C1=O [Piperacillin]
- Zone of Inhibition (E. coli S-112; [7]): Nil
- Interpretation of zone as per CLSI recommendations (E. coli S-112; Table 5, ESBL inhibitor 0 mcg): (R)
- Interpretation of zone as per CLSI recommendations (E. coli S-112; [13]): (R)
- Interpretation of zone as per CLSI recommendations (E. coli S-112; Table 6, ESBL inhibitor 0 mcg): (R)
- Interpretation of zone as per CLSI recommendations (E. coli S-112; [14]): (R)
- Zone of Inhibition (E. coli S-112; with Tazobactam 10 mcg): 14 mm
- Zone of Inhibition (E. coli M-138; [7]): Nil
- Interpretation of zone as per CLSI recommendations (E. coli M-138; Table 5, ESBL inhibitor 0 mcg): (R)
- Interpretation of zone as per CLSI recommendations (E. coli M-138; [13]): (R)
- Interpretation of zone as per CLSI recommendations (E. coli M-138; Table 6, ESBL inhibitor 0 mcg): (R)
- Interpretation of zone as per CLSI recommendations (E. coli M-138; [14]): (R)
- Zone of Inhibition (E. coli M-138; with Tazobactam 10 mcg): 15.5 mm
- Zone of Inhibition (E. coli B-123; [7]): Nil
- Interpretation of zone as per CLSI recommendations (E. coli B-123; Table 5, ESBL inhibitor 0 mcg): (R)
- Interpretation of zone as per CLSI recommendations (E. coli B-123; [13]): (R)
- Interpretation of zone as per CLSI recommendations (E. coli B-123; Table 6, ESBL inhibitor 0 mcg): (R)
- Interpretation of zone as per CLSI recommendations (E. coli B-123; [14]): (R)
- Zone of Inhibition (E. coli B-123; with Tazobactam 10 mcg): 13.5 mm
- Zone of Inhibition (E. coli M50 [1]; [7]): Nil
- Interpretation of zone as per CLSI recommendations (E. coli M50 [1]; Table 5, ESBL inhibitor 0 mcg): (R)
- Interpretation of zone as per CLSI recommendations (E. coli M50 [1]; [13]): (R)
- Interpretation of zone as per CLSI recommendations (E. coli M50 [1]; Table 6, ESBL inhibitor 0 mcg): (R)
- Interpretation of zone as per CLSI recommendations (E. coli M50 [1]; [14]): (R)
- Zone of Inhibition (E. coli M50 [1]; with Tazobactam 10 mcg): 17 mm
- Zone of Inhibition (E. coli B-89 [2]; [7]): Nil
- Interpretation of zone as per CLSI recommendations (E. coli B-89 [2]; Table 5, ESBL inhibitor 0 mcg): (R)
- Interpretation of zone as per CLSI recommendations (E. coli B-89 [2]; [13]): (R)
- Interpretation of zone as per CLSI recommendations (E. coli B-89 [2]; Table 6, ESBL inhibitor 0 mcg): (R)
- Interpretation of zone as per CLSI recommendations (E. coli B-89 [2]; [14]): (R)
- Zone of Inhibition (E. coli B-89 [2]; with Tazobactam 10 mcg): 15 mm
- Zone of Inhibition (E. coli 7MP [3]; [7]): Nil
- Interpretation of zone as per CLSI recommendations (E. coli 7MP [3]; Table 5, ESBL inhibitor 0 mcg): (R)
- Interpretation of zone as per CLSI recommendations (E. coli 7MP [3]; [13]): (R)
- Interpretation of zone as per CLSI recommendations (E. coli 7MP [3]; Table 6, ESBL inhibitor 0 mcg): (R)
- Interpretation of zone as per CLSI recommendations (E. coli 7MP [3]; [14]): (R)
- Zone of Inhibition (E. coli 7MP [3]; with Tazobactam 10 mcg): 13.5 mm
